# Columns and labels:
# Savinase Ultra 16.0L = target: T1, Savinase Ultra 16.0L (Lederbergia lenta, UniProt P29600); experiment: protease storage stability in liquid formulation (Suc-AAPF-pNA substrate); assay type: biochemical; details: 1.5 wt % component (a), storage at 37° C.
# T1 construct: purchased Sigma-Aldrich
# T1 sequence (P29600 1-269): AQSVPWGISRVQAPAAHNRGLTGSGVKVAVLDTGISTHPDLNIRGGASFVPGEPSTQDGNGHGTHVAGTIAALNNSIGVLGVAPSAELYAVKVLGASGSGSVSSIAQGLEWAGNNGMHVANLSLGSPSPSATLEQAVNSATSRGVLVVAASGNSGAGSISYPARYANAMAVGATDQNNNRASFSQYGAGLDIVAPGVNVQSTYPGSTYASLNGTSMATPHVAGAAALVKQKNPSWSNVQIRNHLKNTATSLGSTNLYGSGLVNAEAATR
# Description: Base test formulations were manufactured by making base formulations I to V by mixing the components according to Table 1.
# Protease used: (S) Savinase Ultra 16.0L (CAS-No. 9014-01-1, EC-No. 232-752-2) was purchased from Sigma-Aldrich
# The respective component (a) or comparative compound was added, if applicable, to the respective base formulation in amounts as indicated in Table 1.
# The amount of protease as provided in Table 1 refers to active protein.
# Water was added to accomplish the balance to 100.
# Protease activity at certain points in time as indicated in Table 3 was be determined by employing Succinyl-Ala-Ala-Pro-Phe-p-nitroanilide (Suc-AAPF-pNA, short AAPF) as substrate. pNA is cleaved from the substrate molecule by proteolytic cleavage, resulting in release of yellow color of free pNA which was determined by measuring […]. Measurements were done at 20° C.
# The proteolytic activity values provided in Table 3 were calculated referring to the value determined in the reference formulation at the time 0.
# The nomenclature of formulations is as follows: the Roman number before the full stop characterizes the base formulation, the Arabian number the type of salt (A.#inventive salt (component (a)); B.# comparative compound). Zero (“0”): no salt, but diethylene glycol.
# Amylase = experiment: amylase storage stability in liquid laundry formulation (pNP release from Ethyliden-blocked-pNPG7); assay type: biochemical; set-up: key: % of activity in reference formulation at time 0; details: 2.5 wt % component (a), storage at 37° C.
# Description: The storage stability of amylase was assessed at 37° C.
# Base test formulations were manufactured by making base formulations VI to IX by mixing the components according to Table 4.
# Amylase activity at certain points in time as indicated in Table 5 was measured quantitatively by the release of the chromophore para-nitrophenol (pNP) from the substrate (Ethyliden-blocked-pNPG7, Roche Applied Science 10880078103). The alpha-amylase degrades the substrate into smaller molecules and α-glucosidase (Roche Applied Science 11626329103), which is present in excess compared to the amylase, process these smaller products until pNP is released; the release of pNP, measured via an increase of absorption at 405 nm, is directly proportional to the amylase activity of the sample. Amylase standard: Termamyl 120 L (Sigma 3403).
# The amylolytic activity values provided were calculated referring to the value determined in the reference formulation at the time 0.
# The nomenclature of formulations is as follows: the Roman number before the full stop characterizes the base formulation, the Arabian number the type of compound (A.# compound according to invention (component (a)); B.# comparative compound).
compound,measurement,setting,value
"CCOC(=O)CC(CC(=O)OCC)(OC(C)=O)C(=O)OCC [A.5, Acetyltriethylcitrate]","protease activity, referring to reference formulation at time 0","Savinase Ultra 16.0L; base formulation I., 3 d",96
same,"protease activity, referring to reference formulation at time 0","Savinase Ultra 16.0L; base formulation I., 7 d",90
same,"protease activity, referring to reference formulation at time 0","Savinase Ultra 16.0L; base formulation I., 14 d",84
same,"protease activity, referring to reference formulation at time 0","Savinase Ultra 16.0L; base formulation I., 21 d",80
same,"protease activity, referring to reference formulation at time 0","Savinase Ultra 16.0L; base formulation I., 28 d",76
same,"protease activity, referring to reference formulation at time 0","Savinase Ultra 16.0L; base formulation I., 42 d",62
same,"protease activity, referring to reference formulation at time 0","Savinase Ultra 16.0L; base formulation I., T0",98
same,"protease activity, referring to reference formulation at time 0","Savinase Ultra 16.0L; base formulation III., 3 d",98
same,"protease activity, referring to reference formulation at time 0","Savinase Ultra 16.0L; base formulation III., 7 d",92
same,"protease activity, referring to reference formulation at time 0","Savinase Ultra 16.0L; base formulation III., 14 d",83
same,"protease activity, referring to reference formulation at time 0","Savinase Ultra 16.0L; base formulation III., 21 d",79
same,"protease activity, referring to reference formulation at time 0","Savinase Ultra 16.0L; base formulation III., 28 d",71
same,"protease activity, referring to reference formulation at time 0","Savinase Ultra 16.0L; base formulation III., 42 d",65
same,"protease activity, referring to reference formulation at time 0","Savinase Ultra 16.0L; base formulation III., T0",100
same,"amylase activity, referring to reference formulation at time 0","Amylase; laundry base formulation IX. (2.5 DTPA), 3 d",91
same,"amylase activity, referring to reference formulation at time 0","Amylase; laundry base formulation IX. (2.5 DTPA), 7 d",78
same,"amylase activity, referring to reference formulation at time 0","Amylase; laundry base formulation IX. (2.5 DTPA), 14 d",69
same,"amylase activity, referring to reference formulation at time 0","Amylase; laundry base formulation IX. (2.5 DTPA), 21 d",61
same,"amylase activity, referring to reference formulation at time 0","Amylase; laundry base formulation IX. (2.5 DTPA), 28 d",53
same,"amylase activity, referring to reference formulation at time 0","Amylase; laundry base formulation IX. (2.5 DTPA), T0",98
same,"amylase activity, referring to reference formulation at time 0","Amylase; laundry base formulation VII. (2.0 EDTA), 3 d",92
same,"amylase activity, referring to reference formulation at time 0","Amylase; laundry base formulation VII. (2.0 EDTA), 7 d",81
same,"amylase activity, referring to reference formulation at time 0","Amylase; laundry base formulation VII. (2.0 EDTA), 14 d",72
same,"amylase activity, referring to reference formulation at time 0","Amylase; laundry base formulation VII. (2.0 EDTA), 21 d",66
same,"amylase activity, referring to reference formulation at time 0","Amylase; laundry base formulation VII. (2.0 EDTA), 28 d",61
same,"amylase activity, referring to reference formulation at time 0","Amylase; laundry base formulation VII. (2.0 EDTA), T0",98
same,"amylase activity, referring to reference formulation at time 0","Amylase; laundry base formulation VIII. (2.5 DTPA, no Savinase), 3 d",93
same,"amylase activity, referring to reference formulation at time 0","Amylase; laundry base formulation VIII. (2.5 DTPA, no Savinase), 7 d",83
same,"amylase activity, referring to reference formulation at time 0","Amylase; laundry base formulation VIII. (2.5 DTPA, no Savinase), 14 d",74
same,"amylase activity, referring to reference formulation at time 0","Amylase; laundry base formulation VIII. (2.5 DTPA, no Savinase), 21 d",67
same,"amylase activity, referring to reference formulation at time 0","Amylase; laundry base formulation VIII. (2.5 DTPA, no Savinase), 28 d",64
same,"amylase activity, referring to reference formulation at time 0","Amylase; laundry base formulation VIII. (2.5 DTPA, no Savinase), T0",100
